This is an account of results in patent publication US7163672B2, “Pharmaceutical aerosol formulation” (AstraZeneca AB, priority 2000, dated 2007).

The data set can be described thus: Surface energy by inverse gas chromatography (IGC). The data set is classed as physicochemical. Particulars: 35° C., powder. Here is the method:
Surface energy of the drug and the drug surfactant particles was measured by inverse gas chromatography. A silanised U-shaped column (3 mm internal diameter, 30 cm length) was packed with approximately 400 mg of the test powder and dried under nitrogen for 24 hours at 50° C. The powder bed was then allowed to settle for 24 hours at 35° C. (temperature used during the experiments) under nitrogen. The test probes used were: hexane, heptane, octane, chloroform, CCl4, benzene, acetone, tetrahydrofuran, ethyl acetate and diethyl ether. One ml of air containing a minute concentration of each gaseous probe was injected into the column and the retention time measured.

Turning to `CCC(=O)OCC(=O)[C@@]1(OC(=O)CC)[C@@H](C)C[C@H]2[C@@H]3CCC4=CC(=O)C=C[C@]4(C)[C@@]3(Cl)[C@@H](O)C[C@@]21C` [BDP, Beclomethasone dipropionate], the γs^D (n = 3) was 52.3 mJ/m². As for Salbutamol sulphate, the γs^D (n = 3) is 43.3 mJ/m².
